{
  "source": "paper PMC9814568",
  "about": "“Peptide transporter structure reveals binding and action mechanism of a potent PEPT1 and PEPT2 inhibitor” (Communications Chemistry, 2022)",
  "key": {"[1]": {"system": "C[C@H](N)C(=O)N[C@@H](C)C(=O)O", "assay": "[3H]Ala-Ala uptake kinetics (Km) in E. coli cells overexpressing the transporter", "assay_type": "cell-based, Yersinia enterocolitica"}, "YePEPT [2]": {"molecular_target": "T1, YePEPT (Yersinia enterocolitica, UniProt A0A2R9TD79, K314A/S412A)", "T1 construct": "gene YEP4_02370; YePEPT^K314A-S412A, detergent-purified, His-tagged", "assay": "label-free DSF thermal shift at […] LZNV (no Kd)", "assay_type": "binding"}, "YePEPT [3]": {"molecular_target": "T2, YePEPT (Yersinia enterocolitica, UniProt A0A2R9TD79, K314A)", "T2 construct": "gene YEP4_02370; YePEPT-K314A, C-terminal HRV3C site and His10 tag (cleaved for crystallisation)", "T2 sequence (A0A2R9TD79 1-511 K314A)": "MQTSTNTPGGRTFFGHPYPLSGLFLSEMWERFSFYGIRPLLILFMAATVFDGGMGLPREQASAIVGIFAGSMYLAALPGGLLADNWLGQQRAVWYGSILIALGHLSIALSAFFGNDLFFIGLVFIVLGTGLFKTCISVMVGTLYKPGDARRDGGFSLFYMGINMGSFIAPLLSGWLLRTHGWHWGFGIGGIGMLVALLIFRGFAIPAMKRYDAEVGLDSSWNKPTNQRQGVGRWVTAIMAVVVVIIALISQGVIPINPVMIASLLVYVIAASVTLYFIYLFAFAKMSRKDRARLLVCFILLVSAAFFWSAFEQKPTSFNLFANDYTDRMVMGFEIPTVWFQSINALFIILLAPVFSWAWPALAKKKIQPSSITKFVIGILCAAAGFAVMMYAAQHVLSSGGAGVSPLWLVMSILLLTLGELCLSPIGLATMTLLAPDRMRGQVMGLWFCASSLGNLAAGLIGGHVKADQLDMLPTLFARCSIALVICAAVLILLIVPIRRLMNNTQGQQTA", "assay": "co-crystal structure at […] Å; also thermal shift; IC50 from [3H]Ala-Ala uptake in E. coli cells", "assay_type": "cell-based"}, "YePEPT [4]": {"molecular_target": "T3, YePEPT (Yersinia enterocolitica, UniProt A0A2R9TD79, K314Q/P315G)", "T3 construct": "gene YEP4_02370; YePEPT^K314Q-P315G, detergent-purified, His-tagged", "assay": "label-free DSF thermal shift at […] LZNV (no Kd)", "assay_type": "binding"}},
  "data": [
    {"compound": "YePEPT (Yersinia enterocolitica subsp. palearctica YE-P4; K314A)", "values": [
      {"measurement": "Km", "setting": "[1]", "result": 57.3, "unit": "µM"}
    ]},
    {"compound": "CC(C)[C@H](NC(=O)[C@@H](N)CCCCNC(=O)OCc1ccc([N+](=O)[O-])cc1)C(=O)O", "note": "[LZNV, Lys[Z(NO2)]-Val]", "values": [
      {"measurement": "label-free DSF thermal shift at 200-800 μM LZNV (no Kd)", "setting": "YePEPT [2]", "result": "YePEPT^K314A-S412A still showed a strong dose-dependent stabilisation by LZNV"},
      {"measurement": "IC50", "setting": "YePEPT [3]", "result": 7.6, "unit": "µM"},
      {"measurement": "label-free DSF thermal shift at 200-800 μM LZNV (no Kd)", "setting": "YePEPT [4]", "result": "This variant shows a concentration-dependent stabilisation by LZNV similar to YePEPT^K314A"}
    ]}
  ]
}
